Results as given in US9079913B2, “Spiro-oxindole MDM2 antagonists” (The Regents of the University of Michigan, priority 2009, dated 2015).
Like-named read-outs stand apart in the source and are kept apart here.

Legend:
[1] = test system: Isogenic HCT-116 colon cancer cell lines; assay: cells; format: cell-based;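 also: cells grown in 96-well plates in McCoy's 5A medium with 10% FBS, exposed to compound for 4 days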
Description: Cells were seeded in 96-well flat bottom cell culture plates at a density of 2−3×10^3 cells/well with compounds and incubated for 4 days.

[2] = test system: cancer cell lines with wild-type p53 / mutated or deleted p53 (ATCC); assay: Cell growth assay (WST-8), other cancer cell lines; format: cell-based
[3] = target: recombinant human His-tagged MDM2 protein (residues 1-118) (Homo sapiens (Human), UniProt Q00987); assay: Fluorescence-polarization MDM2 binding assay;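 also: fluorescence polarization read after three hours of incubation in potassium phosphate buffer containing bovine gamma globulin and Triton X-100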
Chain of recombinant human His-tagged MDM2 protein (residues 1-118) (Q00987 1-118): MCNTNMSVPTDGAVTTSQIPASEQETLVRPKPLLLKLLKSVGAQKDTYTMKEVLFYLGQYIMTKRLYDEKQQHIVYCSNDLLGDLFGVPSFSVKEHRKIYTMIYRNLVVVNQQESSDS

[4] = Homo sapiens, HCT-116, read-out: HCT-116 (p53-/-) IC50, Table 19A, HCT-116 p53-/-, cell growth
[5] = Homo sapiens, HCT-116, read-out: HCT-116 (p53 wild-type) IC50, Table 19A, HCT-116 p53 wild-type, cell growth
[6] = Homo sapiens, LNCaP, Table 19A, LNCAP cells, p53 wild-type, cell growth, read-out: LNCAP (p53 wild-type) IC50
[7] = Homo sapiens, PC-3, Table 19A, PC-3 cells, deleted p53, cell growth, read-out: PC-3 (deleted p53) IC50
[8] = Homo sapiens, SJSA-1, Table 19A, SJSA-1 cells, p53 wild-type, cell growth, read-out: SJSA-1 (p53 wild-type) IC50
[9] = Table 19A, FP binding assay, read-out: MDM2 IC50
[10] = Homo sapiens, HCT-116, read-out: Inhibition of cell growth IC50, HCT116 p53 KO, Table 19B, HCT116 p53 KO
[11] = Homo sapiens, HCT-116, read-out: Inhibition of cell growth IC50, HCT116 p53 WT, Table 19B, HCT116 p53 WT
[12] = Homo sapiens, LNCaP, Table 19B, LNCaP cells, read-out: Inhibition of cell growth IC50, LNCaP
[13] = Homo sapiens, PC-3, Table 19B, PC3 cells, read-out: Inhibition of cell growth IC50, PC3
[14] = Table 19B, read-out: Binding affinities to MDM2 protein as determined by FP based assay IC50
[15] = Homo sapiens, HCT-116, read-out: HCT116p53KO IC50, Table 19D, HCT116 p53KO
[16] = Homo sapiens, HCT-116, read-out: HCT116p53WT IC50, Table 19D, HCT116 p53WT
[17] = Homo sapiens, LNCaP, Table 19D, LNCaP cells, read-out: LNCaP IC50
[18] = Homo sapiens, PC-3, Table 19D, PC3 cells, read-out: PC3 IC50
[19] = Table 19D, read-out: MDM2 Binding Affinities IC50

CC(C)(C)C[C@H]1N[C@@H](C(=O)NCC[C@H](O)CN)[C@H](c2cccc(Cl)c2)[C@@]12C(=O)Nc1cc(Cl)c(F)cc12 [MI-319-25]
IC50 ([1]; Homo sapiens, HCT-116, read-out: Cell growth inhibition using WST assay, HCT116 p53KO IC50, Table 19C, HCT116 p53KO): > 10 µM | IC50 ([1]; Homo sapiens, HCT-116, read-out: Cell growth inhibition using WST assay, HCT116 p53WT IC50, Table 19C, HCT116 p53WT): < 5 µM | IC50 ([2]; Homo sapiens, LNCaP, Table 19C, LNCaP cells, read-out: Cell growth inhibition using WST assay, LNCaP IC50): < 5 µM | IC50 ([2]; Homo sapiens, PC-3, Table 19C, PC3 cells, read-out: Cell growth inhibition using WST assay, PC3 IC50): > 10 µM | IC50 ([3]; Table 19C, read-out: Bidning affinities to MDM2 as determined using FP assay IC50): < 1 µM

CC(C)(C)C[C@H]1N[C@@H](C(=O)NC2CCC(OC(=O)[C@H](Cc3ccccc3)NC(=O)OC(C)(C)C)CC2)[C@H](c2cccc(Cl)c2F)[C@@]12C(=O)Nc1cc(Cl)ccc12 (stereo partly drawn) [MI-908]
IC50 [1, 4]: > 30 µM | IC50 [1, 5]: 5.3 µM | IC50 [2, 6]: 4.3 µM | IC50 [2, 7]: ~30 µM | IC50 [2, 8]: 22.5 µM | IC50 [3, 9]: > 10 µM

CC(=O)N1CCC(NC(=O)[C@@H]2N[C@H](CC(C)(C)C)[C@]3(C(=O)Nc4cc(Cl)ccc43)[C@H]2c2cccc(Cl)c2F)CC1 [MI-783]
IC50 [1, 4]: 18.5 µM | IC50 [1, 5]: 0.9 µM | IC50 [2, 8]: 1.1 µM | IC50 [3, 9]: < 0.5 µM

CCC[C@H]1N[C@@H](C(=O)NCC[C@H](O)CO)[C@H](c2cccc(Cl)c2)[C@@]12C(=O)Nc1cc(Cl)c(F)cc12 [MI-702]
IC50 [1, 10]: 12.7 ± 2.3 µM | IC50 [1, 11]: 5.8 ± 1.7 µM | IC50 [2, 12]: 1.9 ± 0.3 µM | IC50 [2, 13]: 14.3 ± 2.9 µM | IC50 [3, 14]: > 1 µM

CN1[C@@H](C(=O)NCC[C@H](O)CO)[C@H](c2cccc(Cl)c2F)[C@@]2(C(=O)Nc3cc(F)c(F)cc32)[C@H]1CC(C)(C)C [MI-718]
IC50 [1, 10]: 47.2 ± 5 µM | IC50 [1, 11]: 3 ± 1.1 µM | IC50 [2, 12]: 3.7 ± 0.3 µM | IC50 [2, 13]: 34.2 ± 0.4 µM | IC50 [3, 14]: > 3 µM

CC(C)(C)C[C@H]1N[C@@H](C(=O)NC2CCN(CC(C)(C)O)CC2)[C@H](c2cccc(Cl)c2F)[C@@]12C(=O)Nc1cc(Cl)ccc12 [MI-785]
IC50 [1, 4]: 8 µM | IC50 [1, 5]: 0.5 µM | IC50 [2, 8]: 0.7 µM | IC50 [3, 9]: < 0.5 µM

CN1[C@@H](C(=O)NCC[C@H](O)CO)[C@H](c2cccc(Cl)c2)[C@@]2(C(=O)Nc3cc(Cl)c(F)cc32)[C@H]1CC(C)(C)C [MI-717]
IC50 ([1]; read-out: Inhibition of cell growth IC50, HCT116 p53 KO, Table 19B, HCT116 p53 KO): 47.8 ± 1.4 µM | IC50 ([1]; read-out: Inhibition of cell growth IC50, HCT116 p53 WT, Table 19B, HCT116 p53 WT): 2.2 ± 0.1 µM | IC50 ([2]; Table 19B, LNCaP cells, read-out: Inhibition of cell growth IC50, LNCaP): 2.7 ± 0.6 µM | IC50 ([2]; Table 19B, PC3 cells, read-out: Inhibition of cell growth IC50, PC3): 31.5 ± 1.4 µM | IC50 [3, 14]: > 3 µM

CCN(CC)C(=O)N1CC(NC(=O)[C@@H]2N[C@H](CC(C)(C)C)[C@]3(C(=O)Nc4cc(Cl)ccc43)[C@H]2c2cccc(Cl)c2F)C1 [MI-917]
IC50 [1, 4]: > 10 µM | IC50 [1, 5]: < 3 µM | IC50 [2, 6]: < 3 µM | IC50 [2, 7]: > 5 µM | IC50 [3, 9]: < 1 µM

CC(C)CC(C)(C)C[C@H]1N[C@@H](C(=O)NCC[C@H](O)CO)[C@H](c2cccc(Cl)c2F)[C@@]12C(=O)Nc1cc(Cl)c(F)cc12 [MI-731]
IC50 [1, 10]: 6.4 ± 1.7 µM | IC50 [1, 11]: 0.9 ± 0.5 µM | IC50 [2, 12]: 0.8 ± 0.5 µM | IC50 [2, 13]: 5.6 ± 1.9 µM | IC50 [3, 14]: < 1 µM

CN1CC[C@@H](NC(=O)[C@@H]2N[C@H](CC(C)(C)C)[C@]3(C(=O)Nc4cc(Cl)ccc43)[C@H]2c2cccc(Cl)c2F)[C@@H](F)C1 [MI-519-58]
IC50 [1, 15]: > 10 µM | IC50 [1, 16]: < 3 µM | IC50 [2, 17]: < 3 µM | IC50 [2, 18]: > 10 µM | IC50 ([2]; Homo sapiens, Table 19D, SJSA-1 cells, unit inferred, read-out: SJSA-1): < 3 µM | IC50 [3, 19]: < 1 µM

CN1[C@@H](C(=O)NCC[C@H](O)CO)[C@H](c2cccc(Cl)c2)[C@@]2(C(=O)Nc3cc(Cl)c(F)cc32)[C@H]1CCc1cccs1 [MI-714]
IC50 [1, 10]: 7.5 ± 0.3 µM | IC50 [1, 11]: 8.6 ± 0.1 µM | IC50 [2, 12]: 4.3 µM | IC50 [2, 13]: 7.7 ± 1.6 µM | IC50 [3, 14]: > 10 µM

CC(C)(C)C[C@H]1N[C@@H](C(=O)NCC[C@H](O)CO)[C@H](c2cccc(Cl)c2)[C@@]12C(=O)Nc1cc(F)ccc12 [MI-519-15]
IC50 [1, 15]: > 10 µM | IC50 [1, 16]: < 3 µM | IC50 [2, 17]: < 5 µM | IC50 [2, 18]: > 10 µM | IC50 [3, 19]: < 1 µM
